Source: EP4410284A1, “COMPOUND AND METHOD FOR THE TREATMENT OF ZELLWEGER SPECTRUM DISORDER” (Apteeus, priority 2023, dated 2024)
Read-outs that look alike come from different tables or passages of the source.

Key:
PEX405 cells [1] = test: Catalase import immunofluorescence, high-content screening (% importing cells); assay type: cell-based, human; conditions: for % Importing cells: PEX405 cells, 3 days
Experimental: The cytotoxicity was assessed in parallel using a double nucleus staining with Hoechst 33342 and Propidium Iodide (PI).

GM16513 cells [2] = assay type: cell-based; conditions: 3 days, PI positive cells (dead cells)
Experimental: (§4) Images were acquired using the EnSight multimode plate reader (PerkinElmer) and analysis was done using Columbus analysis software (PerkinElmer). […] Then the total number of cells and the % of dead cells was calculated.
(§5) All HDAC inhibitors were tested at 1.3 and 10 µM for 3 days on GM16513 and PEX405 cells.

GM16513 cells [3] = test: Catalase import immunofluorescence, high-content screening (% importing cells); assay type: cell-based, human; conditions: GM16513 cells, 3 days
GM11335 = test: Catalase import immunofluorescence (% importing cells); assay type: cell-based, human; conditions: GM11335 (PEX26)
Experimental: (§1) Primary fibroblasts were seeded at 500-700 cells per well in 384-well plates and grown at 37°C overnight. Cells were treated with test compounds or 0.1% DMSO for 3 days. After 3 days and a wash with PBS, cells were fixed with 4% paraformaldehyde (Electron Microscopy Sciences) in PBS for 20 minutes. After 3 washes with PBS, the cells were permeabilized and blocked with 0.3% Triton X-100, 1% BSA in PBS for 30 minutes at room temperature followed by 3 washes with 1% BSA in PBS. The cells were incubated with a rabbit Catalase polyclonal antibody (#12980 Cell signaling) overnight at 4°C. Following 3 washes with PBS containing 0.1% Tween-20, the cells were incubated for 1 h at room temperature with a conjugated goat anti-rabbit secondary antibody Alexa Fluor 647 (Ab150083-Abcam). The cells were then washed 3 times with PBS and Hoechst 33342 (H3570-ThermoFisher Scientific) + HCS Cellmask Blue (H32720 - ThermoFisher Scientific) staining was performed at 0.1 µg/ml and 0.4 µg/mL respectively for 30 minutes at room temperature. The cells were finally washed 3 times with PBS and fluorescent images were acquired using the INCell Analyzer 6000 imaging platform (GE Healthcare Life Sciences).
(§2) Images analysis was done using Columbus analysis software (PerkinElmer). DAPI channel was used to find nuclei (Hoechst 33342) and cytoplasm (HCS CellMask Blue) and border objects were removed. Cy5 channel (AlexaFluor 647) was used to find spots corresponding to peroxisomes which correctly import catalase. Cells were classified as importing or non-importing cells using a linear classifier method after training with images of wells containing Healthy cells and PEX1 deficient cells. The number of importing or non-importing cells was calculated. Finally, results were expressed as % of importing cells.
(§3) Among the HDAC inhibitors of example 2, 4 were tested on other cells which are PEX1, PEX6 or PEX26 deficient.

GM 17398 = test: as above; assay type: cell-based, human; conditions: GM 17398 (PEX26 deficient)
Experimental: as §1, §2, §3

PEX304 = test: as above; assay type: cell-based, human; conditions: PEX304 (PEX1)
Experimental: as §1, §2, §3

GM 16865 = test: as above; assay type: cell-based, human; conditions: GM 16865 (PEX26)
Experimental: as §1, §2, §3

PEX607 = test: as above; assay type: cell-based, human; conditions: PEX607 (PEX6)
Experimental: as §1, §2, §3

PEX506 = test: as above; assay type: cell-based, human; conditions: PEX506 (PEX6)
Experimental: as §1, §2, §3

PEX405 cells [4] = assay type: cell-based; conditions: 3 days, PI positive cells (dead cells)
Experimental: as §4, §5

| Compound | % Importing cells (PEX405 cells [1]; 1.3 µM) [%] | % Importing cells (PEX405 cells [1]; 10 µM) [%] | % PI+ cells (GM16513 cells [2]; 1.3 µM) [%] | % PI+ cells (GM16513 cells [2]; 10 µM) [%] | % Importing cells (GM16513 cells [3]; 1.3 µM) [%] | % Importing cells (GM16513 cells [3]; 10 µM) [%] | % PI+ cells (PEX405 cells [4]; 1.3 µM) [%] | % PI+ cells (PEX405 cells [4]; 10 µM) [%] | other results |
| --- | --- | --- | --- | --- | --- | --- | --- | --- | --- |
| O=C(CCCCCCNC(=O)c1cnc(N(c2ccccc2)c2ccccc2)nc1)NO [Ricolinostat] | 4 | 35 | 2 | 5 | 30 | 89 | 1 | 1 | Concentration (lower dose leading to the maximum effect) (PEX405 cells [1]; PEX405 (PEX1)): 10 µM; Importing cells (%) (PEX405 cells [1]; PEX405 (PEX1), at the lower dose leading to the maximum effect (see E12)): 27%; EC50 (GM16513 cells [3]; Homo sapiens, 72 h, dose response with 6 concentrations, read-out: EC50): 2760 nM; Emax (GM16513 cells [3]; Homo sapiens, 72 h, dose response with 6 concentrations, read-out: Max Efficacy (% Importing cells)): 96%; Concentration (lower dose leading to the maximum effect) (GM11335): 10 µM; Importing cells (%) (GM11335; at the lower dose leading to the maximum effect (see E20)): 18%; Concentration (lower dose leading to the maximum effect) (GM 17398): 30 µM; Importing cells (%) (GM 17398; at the lower dose leading to the maximum effect (see E24)): 0%; Concentration (lower dose leading to the maximum effect) (PEX304): 10 µM; Importing cells (%) (PEX304; at the lower dose leading to the maximum effect (see E14)): 5%; Concentration (lower dose leading to the maximum effect) (GM 16865): 10 µM; Importing cells (%) (GM 16865; at the lower dose leading to the maximum effect (see E22)): 20%; Concentration (lower dose leading to the maximum effect) (PEX607): 3 µM; Importing cells (%) (PEX607; at the lower dose leading to the maximum effect (see E18)): 40%; Concentration (lower dose leading to the maximum effect) (PEX506): 0.33 µM; Importing cells (%) (PEX506; at the lower dose leading to the maximum effect (see E16)): 55% |
| O=C(NO)c1ccc(CN2CCCc3cc(Cl)ccc32)cc1 [SW-100] | 4 | 0 | 1 | 5 | 21 | 6 | 0 | 2 |  |
| CCOC(=O)NCCCC(=O)NCCc1ccccc1 [Santacruzamate A] | 3 | 3 | 1 | 1 | 24 | 25 | 2 | 1 |  |
| O=C(CCCCCN1C(=O)c2cccc3cccc(c23)C1=O)NO [Scriptaid] | 15 | 16 | 2 | 8 | 57 | 92 | 1 | 6 |  |
| O=C1CCc2c(ccc3ccccc23)O1 [Splitomicin] | 5 | 5 | 1 | 1 | 33 | 25 | 0 | 1 |  |
| O=C(CCCCCCC(=O)NO)NO [Suberoyl bis-hydroxamic acid] | 4 | 10 | 1 | 2 | 13 | 57 | 1 | 1 |  |
| CC(C)(CNC(=O)c1cccc(-c2noc(C(F)(F)F)n2)c1)c1coc(-c2ccccc2)n1 [TMP195] | 2 | 1 | 1 | 1 | 13 | 8 | 1 | 1 |  |
| O=C(NCC1(c2nc(-c3ccccc3)cs2)CCOCC1)c1cccc(-c2noc(C(F)(F)F)n2)c1 [TMP269] | 3 | 3 | 1 | 1 | 11 | 7 | 0 | 1 |  |
| CC(=O)Nc1ccc(C(=O)Nc2ccccc2N)cc1 [Tacedinaline] | 2 | 4 | 1 | 2 | 15 | 18 | 1 | 1 |  |
